Measured values from PubChem BioAssay (NCI).
Several values for one entry are separate records, joined by “and”; a condition that tells them apart may be missing. Equal entries are not always repeated.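 How tested: cells in 96-well plates exposed to compound for 48 hours at five concentrations. GI50 = concentration required for 50% inhibition of growth. TGI: total growth inhibition.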

What was measured:
Experiment in all cases: inhibition of tumour cell growth, NCI panel, 48 h
[1] = tested on: SK-MEL-5 melanoma
[2] = tested on: SK-MEL-28 melanoma
[3] = tested on: U251 CNS
[4] = tested on: SF-295 CNS
[5] = tested on: HOP-92 NSCLC
[6] = tested on: RXF 393 renal
[7] = tested on: HL-60(TB) leukemia
[8] = tested on: HCT-116 colon
[9] = tested on: NCI-H460 lung
[10] = tested on: SK-OV-3 ovarian

SMILES | TGI [1] | TGI [2] | TGI [3] | TGI [4] | TGI [5] | TGI [6] | TGI [7] | TGI [8] | TGI [9] | TGI [10] | GI50 [1] | GI50 [2] | GI50 [3] | GI50 [4] | GI50 [5] | GI50 [6] | GI50 [7] | GI50 [8] | GI50 [9] | GI50 [10]
O=C(CC(=O)C1CCOC1=O)C(=O)Nc1ccc(Cl)cc1Cl (configuration not stated) | > 100 µM | > 100 µM | > 100 µM | > 100 µM | > 100 µM | > 100 µM | > 100 µM | > 100 µM | > 100 µM | > 100 µM |  |  |  |  |  |  |  |  |  | 
COC(=O)C(Cc1nc2ccc(Cl)cc2[nH]c1=O)/C(=N/NC(N)=O)C(=O)Nc1ccc(Cl)cc1 (configuration not stated) | > 100 µM | > 100 µM | > 100 µM | > 100 µM | > 100 µM | > 100 µM | > 100 µM | > 100 µM | > 100 µM | > 100 µM |  |  |  |  |  |  |  |  |  | 
COCCOCC(=O)N(CCn1ccc(NC(c2ccccc2)(c2ccccc2)c2ccccc2)nc1=O)CCn1cnc2nc(N)[nH]c(=O)c21 | > 100 µM | > 100 µM | > 100 µM | > 100 µM | > 100 µM | > 100 µM | > 100 µM | > 100 µM | > 100 µM |  |  |  |  |  |  |  |  |  |  | 
Cn1c2c(c3ccccc31)CCN(CCCCN1CCN(c3cccc(Cl)c3)CC1)C2=O | 21.8 µM | 20.1 µM | 24.6 µM | 34 µM | 34.7 µM |  | 18.9 µM | 19.4 µM | 28 µM | 37.8 µM |  |  |  |  |  |  |  |  |  | 
Cc1nc(N)sc1C(=O)Nc1cc(C(=O)NCCCN(C)C)n(C)c1 | > 100 µM | > 100 µM | > 100 µM | > 100 µM | > 100 µM | > 100 µM | > 100 µM | > 100 µM | > 100 µM | > 100 µM | > 100000 nM | 65.4 µM | > 100 µM | > 100000 nM | > 100000 nM | > 100 µM | > 100000 nM | > 100000 nM | > 100000 nM | > 100 µM
COc1cc2nc3cc([N+](=O)[O-])ccc3c(NCCCNCC(C)(C)O)c2cc1OC | 1.76 µM | 2.5 µM | 1.01 µM | 2.43 µM | 0.726 µM | 1.24 µM | 2.95 µM | 1.04 µM | 1.04 µM | 2.59 µM | 520 nM | 0.839 µM | 0.303 µM | 501 nM | 225 nM | 0.297 µM | 694 nM | 299 nM | 299 nM | 0.506 µM
CCCCCCCCCCCCN(O)C(=O)c1ccccc1 |  | > 100 µM | 29.8 µM | > 100 µM | 71.8 µM | > 100 µM | 54.8 µM | > 100 µM |  | 92.1 µM |  |  |  |  |  |  |  |  |  | 
O=C(Oc1ccccc1Cl)c1ccccc1Nc1ccnc(C(F)(F)F)c1 | 0.545 µM |  | 0.808 µM | 1.09 µM | 13.4 µM |  | > 100 µM | 3.65 µM | > 26.2 µM | 46.4 µM | 264 nM |  | 0.271 µM | 270 nM | 271 nM |  | 472 nM | 1780 nM | 422 nM | 8.02 µM
O=C(O)Cn1c(=O)[nH]c(=O)c2c1ncn2Cc1ccccc1 | > 100 µM | > 100 µM | > 100 µM |  | > 100 µM |  |  | > 100 µM | > 100 µM | > 100 µM |  |  |  |  |  |  |  |  |  | 
O=[N+]([O-])c1ccc2ncccc2c1Cl | 10 µM | 20.8 µM | 11.8 µM |  | 24.6 µM | 8.81 µM | 7.78 µM | 7.23 µM | 16.6 µM | > 100 µM | 2950 nM | 6.29 µM | 3.38 µM |  | 6570 nM | 2.74 µM | 1920 nM | 1570 nM | 3470 nM | 3.13 µM
Cc1ccc2[nH]c3c(ncc4[nH]c5ccccc5c43)c2c1 |  | 32 µM | 28 µM | 30.9 µM |  | 27.2 µM | 36.3 µM | 30.8 µM | 30.6 µM | 25.2 µM |  |  |  |  |  |  |  |  |  | 
COc1ccc2c(c1)[n+](=O)c(C(=O)/C=C/c1cc(OC)c(OC)c(OC)c1)c(C)n2[O-] | > 100 µM | > 100 µM | 22.4 µM | > 100 µM | 30.8 µM | 21.5 µM | > 100 µM | 65.5 µM | > 100 µM | 51.7 µM | 40400 nM | > 100 µM | 9.87 µM | 27100 nM | 12300 nM | 6.47 µM | > 100000 nM | 16900 nM | 23000 nM | 21.3 µM
Nc1nc(N)c2nc(CNc3ccc(C(=O)NC(CCCNC(=O)c4ccccc4C(=O)O)C(=O)O)cc3)cnc2n1 (configuration not stated) | > 100 µM | > 100 µM | > 100 µM |  |  | > 100 µM | > 100 µM | > 100 µM | > 100 µM |  | 5.77 nM |  |  | < 10 nM and 3.32 nM | < 10 nM and 27.4 nM |  | 0.49 nM | 0.28 nM | 0.45 nM | 
CC/C(C)=C1\OC(=O)C(C)C(O)C(Cc2cccnc2)NC(=O)C(NC(=O)c2ncccc2O)C(C)OC1=O (configuration not stated) | > 100 µM | > 100 µM | > 100 µM | > 100 µM |  |  | > 100 µM | > 100 µM | > 100 µM | > 100 µM |  |  |  |  |  |  |  |  |  | 
CC(C)(C)C(=O)O[C@@H]1COC2C(O)COC21 (some centres not stated) | > 100 µM | > 100 µM | > 100 µM | > 100 µM | > 100 µM | > 100 µM | > 100 µM | > 100 µM | > 100 µM |  |  |  |  |  |  |  |  |  |  | 
O=C1C(Cl)=C(Nc2cccc(O)c2)C(=O)N1c1ccccc1Cl | 65.6 µM | > 100 µM | > 100 µM | > 100 µM |  | 41.2 µM |  | 70.9 µM | > 100 µM | > 100 µM | 18800 nM | 58 µM | 33.3 µM | 40000 nM |  | 7.87 µM |  | 20000 nM | 41200 nM | 49.9 µM
N#CC1(C=O)c2ccccc2C=CN1C(=O)c1ccccc1 (configuration not stated) | 47.3 µM | > 100 µM | > 100 µM |  | 65.9 µM | 53.8 µM | 45.9 µM | > 100 µM | > 100 µM |  |  |  |  |  |  |  |  |  |  | 
CC(=O)[O-].O=C([CH-]C(=O)c1ccccc1)c1ccccc1.O=C([CH-]C(=O)c1ccccc1)c1ccccc1.[Y+3] | 14.2 µM | 39 µM | 31.5 µM | 18.5 µM | 18.9 µM |  | 10.8 µM | 19.3 µM | 18.4 µM | 37.1 µM | 3560 nM | 8.34 µM | 3.91 µM | 3290 nM | 4040 nM |  | 2440 nM | 4970 nM | 2690 nM | 8.31 µM
